In one assay the target is T1, c-kit (Homo sapiens, UniProt P10721).
T1 construct: MO7e (human megakaryocytic leukemia cell line) which had been arrested for 20 hr; endogenous in cells; host or cells: MO7e human megakaryocytic leukemia cell line
T1 sequence (P10721 26-976): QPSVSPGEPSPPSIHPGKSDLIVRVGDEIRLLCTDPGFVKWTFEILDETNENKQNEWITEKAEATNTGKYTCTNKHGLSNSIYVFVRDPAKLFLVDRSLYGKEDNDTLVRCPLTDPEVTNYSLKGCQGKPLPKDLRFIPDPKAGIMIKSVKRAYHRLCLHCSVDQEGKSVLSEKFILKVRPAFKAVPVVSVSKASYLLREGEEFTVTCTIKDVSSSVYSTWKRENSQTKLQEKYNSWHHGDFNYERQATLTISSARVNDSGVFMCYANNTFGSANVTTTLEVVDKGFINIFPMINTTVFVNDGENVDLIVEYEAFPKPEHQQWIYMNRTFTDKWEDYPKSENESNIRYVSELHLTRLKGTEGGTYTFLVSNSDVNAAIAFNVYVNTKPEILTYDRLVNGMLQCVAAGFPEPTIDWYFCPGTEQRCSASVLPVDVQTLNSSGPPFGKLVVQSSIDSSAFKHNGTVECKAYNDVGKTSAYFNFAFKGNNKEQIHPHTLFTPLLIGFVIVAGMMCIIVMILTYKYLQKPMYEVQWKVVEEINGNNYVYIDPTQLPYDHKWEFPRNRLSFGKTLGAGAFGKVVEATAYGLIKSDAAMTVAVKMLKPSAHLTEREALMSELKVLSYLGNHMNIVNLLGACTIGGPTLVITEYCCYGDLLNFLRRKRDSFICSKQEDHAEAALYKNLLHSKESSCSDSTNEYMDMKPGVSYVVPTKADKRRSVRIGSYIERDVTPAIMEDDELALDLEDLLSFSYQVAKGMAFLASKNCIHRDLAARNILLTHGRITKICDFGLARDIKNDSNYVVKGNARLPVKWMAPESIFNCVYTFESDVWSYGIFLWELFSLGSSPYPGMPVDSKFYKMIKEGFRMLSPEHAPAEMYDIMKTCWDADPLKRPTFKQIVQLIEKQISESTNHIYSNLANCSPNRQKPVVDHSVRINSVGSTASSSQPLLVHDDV
The experiment in a line: Inhibitory activity against c-kit autophosphorylation (MO7e cells, h-SCF). It counts as cell-based. The conditions noted are these: MO7e cells, 50 ng/ml h-SCF; read-out: c-kit IC50. Here is the method:
Inhibitory Activity Against c-kit Autophosphorylation
MO7e (human megakaryocytic leukemia cell line) which had been arrested for 20 hr was seeded into 96 well plates at an amount of 2×10^5 per well. A solution of a test compound in DMSO was added, and a reaction was then allowed to proceed for one hr. Thereafter, the cells were stimulated by 50 ng/ml of h-SCF for 5 min, followed by replacement with lysate buffer to solubilize the cells.
Next, the solubilized cell sap was transferred to a 96-well plate with an anti-phosphotyrosine antibody (PY-20) previously immobilized thereon, and a reaction was allowed to proceed. Thereafter, the cells were reacted with an anti-c-kit antibody (c-19, Santa Cruz) as a primary antibody and were labelled with GAR (anti-rabbit IgG, horseradish peroxidase, Amersham) as a secondary antibody. Color development was then carried out in a peroxidase color development kit (Sumitomo Bakelite Co., Ltd.), and the absorbance was measured at a wavelength of 450 nm.
As usually defined, the IC50 is the point on the concentration scale where inhibition reaches its midpoint. Consider `COc1cc2nccc(Oc3ccc(NC(=O)NNc4ccccc4)c(F)c3)c2cc1OC` [Example 612, N-{4-[(6,7-Dimethoxy-4-quinolyl)oxy]-2-fluorophenyl}-N′-(phenylamino)urea], for which the IC50 was found to be 173 nM.

For `COc1cc(Oc2ccnc3cc(OC)c(OC)cc23)ccc1NC(=O)NCCN1CCCCC1` [Example 681, N-{4-[(6,7-Dimethoxy-4-quinolyl)oxy]-2-methoxyphenyl}-N′-(2-piperidinoethyl)urea], the concentration for half-maximal inhibition (IC50) is 270 nM.

In the case of `COc1cc2nccc(Oc3ccc(NC(=S)NC(=O)Cc4ccccc4F)cc3)c2cc1OC` [Example 729, N-{4-[(6,7-Dimethoxy-4-quinolyl)oxy]phenyl}-N′-[2-(2-fluorophenyl)acetyl]thiourea], the IC50 was found to be 302 nM.

Take `COc1ccccc1NC(=O)COc1ccc(Oc2ccnc3cc(OC)c(OC)cc23)cc1` [Example 776, N1-(2-Methoxyphenyl)-2-{4-[(6,7-dimethoxy-4-quinolyl)oxy]phenoxy}acetamide]: the concentration for half-maximal inhibition (IC50) was 386 nM.

The assay is the same for the next values; noted with them: MO7e cells, h-SCF 50 ng/ml; read-out: c-kit IC50.
As to `COc1cc2nccc(Oc3ccc(NC(=O)OCc4ccc(Cl)cc4)cc3)c2cc1OC` [Example 229, 4-Chlorobenzyl N-{4-[(6,7-dimethoxy-4-quinolyl)oxy]phenyl}carbamate], the IC50 is 47 nM.

For the compound `C=CCCCOC(=O)Nc1ccc(Oc2ccnc3cc(OC)c(OC)cc23)cc1` [Example 266, 4-Pentenyl N-{4-[(6,7-dimethoxy-4-quinolyl)oxy]phenyl}carbamate], the IC50 was found to be 34 nM.

For the compound `C=CCCCOC(=O)Nc1cc(C)c(Oc2ccnc3cc(OC)c(OC)cc23)cc1C` [Example 267, 4-Pentenyl N-{4-[(6,7-dimethoxy-4-quinolyl)oxy]-2,5-dimethylphenyl}carbamate], the IC50 is 35 nM.

Regarding `C=CCCCOC(=O)Nc1ccc(Oc2ccnc3cc(OC)c(OC)cc23)c(C)c1C` [Example 268, 4-Pentenyl N-{4-[(6,7-dimethoxy-4-quinolyl)oxy]-2,3-dimethylphenyl}carbamate], the IC50 was found to be 34 nM.

Turning to `CCCCOC(=O)Nc1ccc(Oc2ncnc3cc(OC)c(OC)cc23)cc1Cl` [Example 345, Butyl N-{2-chloro-4-[(6,7-dimethoxy-4-quinazolinyl)oxy]phenyl}carbamate], the IC50 turned out to be 123 nM.

The assay is the same for the next values; noted with them: Mo7e, figure in parentheses in −( ); at 1000 nM.
In general, inhibition refers to how much of the control response was suppressed. In the case of `CCCCC(CCCC)OC(=O)Nc1ccc(Oc2ncnc3cc(OC)c(OC)cc23)cc1Cl` [Example 372, 1-Butylpentyl N-{2-chloro-4-[(6,7-dimethoxy-4-quinazolinyl)oxy]phenyl}carbamate], the inhibition at 1 µM worked out at 14%.

Still in this assay, the particulars now being: Mo7e, figure within parentheses in −( ) or >1000( ); at 1000 nM.
With `C#CCC(CC)OC(=O)Nc1ccc(Oc2ncnc3cc(OC)c(OC)cc23)cc1OC` (stereo not shown) [Example 502, 1-Ethyl-3-butynyl N-{4-[(6,7-dimethoxy-4-quinazolinyl)oxy]-2-methoxyphenyl}carbamate], the inhibition at 1 µM stood at 23%.

Consider `CCCCC(CCCC)OC(=O)Nc1ccc(Oc2ncnc3cc(OC)c(OC)cc23)cc1[N+](=O)[O-]` [Example 508, 1-Butylpentyl N-{4-[(6,7-dimethoxy-4-quinazolinyl)oxy]-2-nitrophenyl}carbamate], for which the inhibition at 1 µM turned out to be 28%.

As to `CCN(CC)CCCNC(=S)Nc1ccc(Oc2ncnc3cc(OC)c(OC)cc23)cc1` [Example 531, N-{4-[(6,7-Dimethoxy-4-quinazolinyl)oxy]phenyl}-N′-(3-diethylaminopropyl)thiourea], the inhibition at 1 µM was determined as 31%.

With `COc1cc2ncnc(Oc3ccc(NC(=S)NCCCN4CCN(C)CC4)cc3)c2cc1OC` [Example 536], the inhibition at 1 µM came to 7%.

Regarding `COc1cc2nccc(Oc3ccc(NC(=O)NN4CCCCC4)c(F)c3)c2cc1OC` [Example 613, N-{4-[(6,7-Dimethoxy-4-quinolyl)oxy]-2-fluorophenyl}-N′-(1-piperidinyl)urea], the inhibition at 1 µM came to 29%.

`COc1cc2ncnc(Oc3ccc(NC(=O)NCCN4CCCC4)cc3)c2cc1OC` [Example 621, N-{4-[(6,7-Dimethoxy-4-quinazolinyl)oxy]phenyl}-N′-(2-tetrahydro-1H-1-pyrrolylethyl)urea]: the inhibition at 1 µM was 30%.
